Test results: BigSolDB 2.1

Q: Which results are given for `CCOC(=O)C1=C[C@]2(CC)CCCN3CCc4c(n1c1ccccc41)[C@@H]32`?
A: solubility (mole fraction) (in 2-butanone, 283.15 K): 0.00526; solubility (mole fraction) (in 2-butanone, 288.15 K): 0.00649; solubility (mole fraction) (in 2-butanone, 293.15 K): 0.00793; solubility (mole fraction) (in 2-butanone, 298.15 K): 0.00962; solubility (mole fraction) (in 2-butanone, 303.15 K): 0.0118; solubility (mole fraction) (in 2-butanone, 308.15 K): 0.0142; solubility (mole fraction) (in 2-butanone, 313.15 K): 0.017; solubility (mole fraction) (in 2-butanone, 318.15 K): 0.0203; solubility (mole fraction) (in 2-butanone, 323.15 K): 0.0239; solubility (mole fraction) (in cyclohexane, 283.15 K): 0.00133; solubility (mole fraction) (in cyclohexane, 288.15 K): 0.0017; solubility (mole fraction) (in cyclohexane, 293.15 K): 0.00216; solubility (mole fraction) (in cyclohexane, 298.15 K): 0.00274; solubility (mole fraction) (in cyclohexane, 303.15 K): 0.00346; solubility (mole fraction) (in cyclohexane, 308.15 K): 0.00433; solubility (mole fraction) (in cyclohexane, 313.15 K): 0.00537; solubility (mole fraction) (in cyclohexane, 318.15 K): 0.00656; solubility (mole fraction) (in cyclohexane, 323.15 K): 0.00802; solubility (mole fraction) (in ethanol, 283.15 K): 0.000492; solubility (mole fraction) (in ethanol, 288.15 K): 0.000641; solubility (mole fraction) (in ethanol, 293.15 K): 0.00082; solubility (mole fraction) (in ethanol, 298.15 K): 0.00101; solubility (mole fraction) (in ethanol, 303.15 K): 0.00126; solubility (mole fraction) (in ethanol, 308.15 K): 0.00158; solubility (mole fraction) (in ethanol, 313.15 K): 0.00197; solubility (mole fraction) (in ethanol, 318.15 K): 0.00245; solubility (mole fraction) (in ethanol, 323.15 K): 0.00302; solubility (mole fraction) (in ethyl acetate, 283.15 K): 0.0039; solubility (mole fraction) (in ethyl acetate, 288.15 K): 0.00481; solubility (mole fraction) (in ethyl acetate, 293.15 K): 0.00585; solubility (mole fraction) (in ethyl acetate, 298.15 K): 0.00718; solubility (mole fraction) (in ethyl acetate, 303.15 K): 0.00879; solubility (mole fraction) (in ethyl acetate, 308.15 K): 0.0106; solubility (mole fraction) (in ethyl acetate, 313.15 K): 0.0127; solubility (mole fraction) (in ethyl acetate, 318.15 K): 0.0154; solubility (mole fraction) (in ethyl acetate, 323.15 K): 0.0185; solubility (mole fraction) (in isopropanol, 283.15 K): 0.000345; solubility (mole fraction) (in isopropanol, 288.15 K): 0.000474; solubility (mole fraction) (in isopropanol, 293.15 K): 0.000643; solubility (mole fraction) (in isopropanol, 298.15 K): 0.000834; solubility (mole fraction) (in isopropanol, 303.15 K): 0.00108; solubility (mole fraction) (in isopropanol, 308.15 K): 0.00137; solubility (mole fraction) (in isopropanol, 313.15 K): 0.00184; solubility (mole fraction) (in isopropanol, 318.15 K): 0.00245; solubility (mole fraction) (in isopropanol, 323.15 K): 0.00323; solubility (mole fraction) (in methanol, 283.15 K): 0.000378; solubility (mole fraction) (in methanol, 288.15 K): 0.000476; solubility (mole fraction) (in methanol, 293.15 K): 0.000608; solubility (mole fraction) (in methanol, 298.15 K): 0.000736; solubility (mole fraction) (in methanol, 303.15 K): 0.00089; solubility (mole fraction) (in methanol, 308.15 K): 0.0011; solubility (mole fraction) (in methanol, 313.15 K): 0.00136; solubility (mole fraction) (in methanol, 318.15 K): 0.00166; solubility (mole fraction) (in methanol, 323.15 K): 0.00204; solubility (mole fraction) (in methyl acetate, 283.15 K): 0.00262; solubility (mole fraction) (in methyl acetate, 288.15 K): 0.00329; solubility (mole fraction) (in methyl acetate, 293.15 K): 0.00416; solubility (mole fraction) (in methyl acetate, 298.15 K): 0.00517; solubility (mole fraction) (in methyl acetate, 303.15 K): 0.00646; solubility (mole fraction) (in methyl acetate, 308.15 K): 0.00794; solubility (mole fraction) (in methyl acetate, 313.15 K): 0.00973; solubility (mole fraction) (in methyl acetate, 318.15 K): 0.0121; solubility (mole fraction) (in methyl acetate, 323.15 K): 0.0148; solubility (mole fraction) (in n-butanol, 283.15 K): 0.000936; solubility (mole fraction) (in n-butanol, 288.15 K): 0.00127; solubility (mole fraction) (in n-butanol, 293.15 K): 0.0017; solubility (mole fraction) (in n-butanol, 298.15 K): 0.0022; solubility (mole fraction) (in n-butanol, 303.15 K): 0.00285; solubility (mole fraction) (in n-butanol, 308.15 K): 0.00374; solubility (mole fraction) (in n-butanol, 313.15 K): 0.0048; solubility (mole fraction) (in n-butanol, 318.15 K): 0.00632; solubility (mole fraction) (in n-butanol, 323.15 K): 0.00806; solubility (mole fraction) (in n-propanol, 283.15 K): 0.000727; solubility (mole fraction) (in n-propanol, 288.15 K): 0.00098; solubility (mole fraction) (in n-propanol, 293.15 K): 0.00126; solubility (mole fraction) (in n-propanol, 298.15 K): 0.00164; solubility (mole fraction) (in n-propanol, 303.15 K): 0.00208; solubility (mole fraction) (in n-propanol, 308.15 K): 0.00268; solubility (mole fraction) (in n-propanol, 313.15 K): 0.00343; solubility (mole fraction) (in n-propanol, 318.15 K): 0.00435; solubility (mole fraction) (in n-propanol, 323.15 K): 0.00528
